The results in this text go back to article PMC5667507, “A novel ^18F-labelled high affinity agent for PET imaging of the translocator protein” (Chemical Science, 2015).

For the test, the system named is TSPO. The test can be described thus: Ex vivo autoradiography, U87MG-Luc2 orthotopic glioma bearing mice. It counts as in vivo, mouse. As to the method:
To investigate the behavior of [^18F]-AB5186 6 in vivo, ex vivo autoradiography was performed using mice bearing a U87MG-Luc2 orthotopic model of human glioblastoma. Animals were pre-treated with either vehicle (n = 4) or 1 mg kg^–1 unlabelled PK11195 (n = 4) administered intravenously 10 min prior to [^18F]-AB5186 6 intravenous injection. Animals were killed and brains were removed 20 min after the radiotracer was given and frozen. Cryostat sections were then used to generate autoradiograms. […] The non-tumour bearing contralateral side of the brain lacked proliferating cells and minimal TSPO expression and immunolabelled microglia were visible (data not shown). Under normal circumstances microglia express low levels of TSPO in the brain. […]
temperature. Non-specific binding was determined in adjacent sections by incubating with [18F]- AB5186 6 in the presence of 10 µM PK11195 (Tocris, UK). […]
Following this, the tissues were washed with 0.1% Tween® 20 in TBS (2 × 5 min) and a secondary one hour incubation at room temperature was performed using Dako horseradish-peroxidase labelled anti-mouse or anti-rabbit polymers. The sections were once again washed using 0.1% Tween® 20 in TBS (2 × 5 min) and the presence of antibody was detected using the 3,3’- diaminobenzidine chromagen solution diluted in Dako DAB+ substrate buffer. […]

Consider `CCN(CC)C(=O)c1nc2ccccc2c(-c2ccccc2)c1C[18F]` [[^18F]-AB5186 6], for which, under “1 mg kg^-1 unlabelled PK11195 i.v. 10 min before tracer, P = 0.0002”, the “binding (tumour to contralateral optical density ratio) after PK11195 blockade” value was “significantly reduced”. The “total binding, tumour tissue compared to contralateral region” value (ex vivo autoradiography, vehicle pre-treatment, brains removed 20 min after tracer i.v.) is given as “substantially higher”.
